According to patent US10406236B2, “Single wall nanotube constructs and uses thereof” (Sloan-Kettering Institute for Cancer Research, priority 2005, dated 2019):

Legend:
CD8+ T cells = experiment: WT-1 peptide specific CTL responses in vivo (ELISPOT); conditions: mouse
Experimental: Mouse footpads of C57BL/6 or BALB/c, depending on the peptide specificity, are injected with the various OVA constructs in the presence or absence of adjuvant (Titermax, Sigma) along with appropriate control groups. Serum from immunized animals is obtained via retro-orbital bleeding and assayed for SWNT specific Abs using the ELISA protocol described above.
HA-Multiscreen plates were coated with rat-anti-mouse IFN-g antibody (MabTech). CD8+ T cells isolated and purified from the paplitial lymph nodes of immunized animals are plated, and APCs from a non-immunized mouse are isolated, irradiated, pulsed with peptides, and added to the CD8+ T cells at an E:T ratio of 1:4. The cellular mixture is incubated overnight at 37° C. and the plates were developed the next day using an antibody against rat IgG. Spots were counted using a computer assisted video image analyzer with KS ELISPOT 4.0 software (Carol Zeiss Vision, Germany).
A few of these peptides were screened for their ability to elicit WT-1 peptide specific CTL responses in vivo using the methods described above.

peptide pulsed APCs = experiment: ^51Cr cytotoxicity assay; format: cell-based, mouse; conditions: E:T ratios 1:60-1:7, 4 hours
Experimental: To detect the cytotoxic nature of the activated CD8+ T cells peptide specific CD8+ cells and irradiated peptide pulsed APCs were prepared as described above. The peptide sensitized APCs were labeled with 100 μCi of ^51Cr and incubated together with the CD8+ cells at E:T ratios varying from 1:60-1:7. After incubation together for 4 hours, supernatants were harvested and measured in a gamma counter.

serum antibodies = experiment: Competition study of serum antibodies to SWNT; format: binding, Balb/c mice; conditions: high concentrations (>0.1 mg/ml)
Daudi (CD20+, specific) = conditions: reference (33); cited from earlier work
GFP1/FFLuc1 Daudi tumor = experiment: Biodistribution and tumor targeting in disseminated lymphoma model; format: in vivo; conditions: 24 h after i.v. injection, tumor-bearing scid mice
Experimental: The specific SWNT-rituximab-^111In*DOTA construct or control SWNT-HuM195-^111In*DOTA (Lintuzumab) construct was prepared by adding 111-185 MBq of acidic 111In chloride to 0.50 mg of SWNT-rituximab-DOTA or SWNT-HuM195-DOTA (50 g/L) in MFW and 0.050 mL of 3 M ammonium acetate to yield a pH 5.5 solution. The reaction mixture was maintained at ambient temperature for 30 min and then purified using a 10DG column with 1% HSA/0.9% NaCl. The radiochemical purity of SWNT-rituximab-DOTA or SWNT-HuM195-DOTA was 95% and the radiolabeled Rituximab was 98% as determined by the ITLC-SG methods described herein.
The biodistribution and tumor targeting specificity of SWNT-rituximab-^111In*DOTA was evaluated against different controls in a murine model of disseminated lymphoma (33) using the GFP1/FFLuc1 Daudi cell line. The tumor was introduced by injecting 5 million cells into each of the female C.B.-17 severe combined immunodeficiency (scid) mice (8- to 10-wk old; Taconic Farms) intravenously via the retroorbital sinus route. Tumor growth in mice was determined by BLI using a Xenogen IVIS Optical Imaging System (Xenogen Corp.). Imaging was performed on mice that received an intraperitoneal injection of 3 mg of D-Luciferin (Xenogen) per mouse. On day 28 after tumor infusion, the tumor-bearing mice were separated into 4 groups; an additional 2 groups of scid mice with no tumor were included as control. […]

tumor expressing cells = conditions: previous reports; cited from earlier work

Row | Molecule | stimulation of CD8+ T cells that cross react with the native sequence (CD8+ T cells) | immune response (WT-1 peptide specific CTL response in vivo) (CD8+ T cells) | further results
1 | SCLESQPTI [WTI-136] | unable |  | 
2 | AYLPAVSSL [WTI-10A] | stimulated CD8+ T cells that cross reacted with the native sequence | robust immune response | 
3 | RYFPNAPYL [WTI-126A] |  |  | heteroclitic response (peptide pulsed APCs): able to stimulate a heteroclitic response; killing of peptide pulsed targets by CD8+ T cells (peptide pulsed APCs): killed pulsed targets
4 | O=C(O)CCCC[C@@H]1SC[C@@H]2NC(=O)N[C@@H]21 [biotin] |  |  | inhibition of serum antibodies (serum antibodies): did not
5 | CMTWNQMNM [WTI-235A] | stimulated CD8+ T cells that cross reacted with the native sequence | robust immune response | heteroclitic response (peptide pulsed APCs): able to stimulate a heteroclitic response; killing of peptide pulsed targets by CD8+ T cells (peptide pulsed APCs): killed pulsed targets
6 | SYLESQPTI [WTI-136A] | stimulated CD8+ T cells that cross reacted with the native sequence | robust immune response | 
7 | [111In]Rituximab: ^111In-labeled Rituximab targeting antibody, positive control |  |  | immunoreactive fraction measured previously (Daudi (CD20+, specific)): 42%±17%; femur % ID/g (GFP1/FFLuc1 Daudi tumor): 11.4±3.32 % ID/g
8 | ALLPAVSSL [WTI-10] | unable |  | 
9 | CMTWNQMNL [WTI-235] | unable |  | ability to kill tumor expressing cells or to produce a successful vaccine (tumor expressing cells): limited ability
